# Laboratory results taken from ChEMBL document CHEMBL1156928, “Design of novel nicotinamides as potent and selective monoamine oxidase a inhibitors” (Bioorg Med Chem, 2010).
# Tests used:
# [1] = molecular target: T1, Amine oxidase [flavin-containing] B (Rattus norvegicus, UniProt P19643); assay: Inhibition of MAOB in Sprague-Dawley rat brain mitochondria using kynuramine substrate by fluorimetry
# T1 sequence (P19643 whole entry): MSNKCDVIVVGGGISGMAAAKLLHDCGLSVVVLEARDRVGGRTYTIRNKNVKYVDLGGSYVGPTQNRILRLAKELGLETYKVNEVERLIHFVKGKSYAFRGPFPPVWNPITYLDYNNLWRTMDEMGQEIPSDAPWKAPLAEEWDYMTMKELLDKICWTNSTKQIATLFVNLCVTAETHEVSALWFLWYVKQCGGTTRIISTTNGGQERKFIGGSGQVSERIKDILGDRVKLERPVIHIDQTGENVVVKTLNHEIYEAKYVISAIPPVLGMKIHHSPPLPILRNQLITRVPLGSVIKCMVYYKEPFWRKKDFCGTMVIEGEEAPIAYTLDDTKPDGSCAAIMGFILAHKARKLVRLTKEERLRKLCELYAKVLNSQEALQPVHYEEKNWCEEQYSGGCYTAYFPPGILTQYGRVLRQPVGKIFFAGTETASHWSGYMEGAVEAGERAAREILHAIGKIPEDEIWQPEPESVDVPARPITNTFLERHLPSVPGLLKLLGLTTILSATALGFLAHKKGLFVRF
# [2] = molecular target: T2, Amine oxidase [flavin-containing] A (Rattus norvegicus, UniProt P21396); assay: Inhibition of MAOA in Sprague-Dawley rat brain mitochondria using kynuramine substrate by fluorimetry
# T2 sequence (P21396 whole entry): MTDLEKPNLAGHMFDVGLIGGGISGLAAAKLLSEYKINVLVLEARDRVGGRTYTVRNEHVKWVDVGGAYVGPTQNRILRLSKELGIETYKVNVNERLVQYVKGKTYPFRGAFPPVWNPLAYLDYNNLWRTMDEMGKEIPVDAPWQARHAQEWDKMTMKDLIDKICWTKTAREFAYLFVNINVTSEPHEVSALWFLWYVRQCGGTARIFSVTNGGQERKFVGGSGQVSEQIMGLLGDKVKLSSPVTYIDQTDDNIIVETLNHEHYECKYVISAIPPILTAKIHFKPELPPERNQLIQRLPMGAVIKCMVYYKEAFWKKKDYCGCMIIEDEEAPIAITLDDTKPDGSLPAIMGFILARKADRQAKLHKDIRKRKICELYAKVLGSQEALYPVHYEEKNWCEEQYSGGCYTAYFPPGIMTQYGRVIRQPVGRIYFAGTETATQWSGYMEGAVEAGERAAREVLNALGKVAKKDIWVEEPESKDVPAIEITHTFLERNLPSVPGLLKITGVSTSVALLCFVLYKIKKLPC
Compound,IC50 [1] [µM],IC50 [2] [µM]
O=C(NCCN1CCOCC1)c1cnc(Cl)c(Cl)c1,48,0.084
Cc1ccc(C(=O)NCCCN2CCOCC2)cn1,> 100,> 100
O=C(NCCN1CCOCC1)c1ccc(Cl)nc1,34,0.18
O=C(NCCN1CCOCC1)c1ccc(=O)[nH]c1,> 100,0.43
O=C(NCCCN1CCOCC1)c1ccc(O)nc1,> 100,56
Cc1ccc(C(=O)NCCCN2CCOCC2)c(Cl)n1,> 100,> 100
O=C(NCCCN1CCOCC1)c1cnc(Cl)c(Cl)c1,45,0.1
O=C(NCCCN1CCOCC1)c1c[nH]c(=O)c(Cl)c1,82,12
O=C(NCCN1CCOCC1)c1cccnc1O,> 100,45
O=C(NCCN1CCOCC1)c1cnccc1Cl,74,0.75
O=C(NCCN1CCOCC1)c1cncc(Br)c1,55,26
Cc1ccc(C(=O)NCCN2CCOCC2)cn1,> 100,86
O=C(NCCCN1CCOCC1)c1cccnc1Br,1.9,35
O=C(NCCCN1CCOCC1)c1ccc[nH]c1=O,> 100,> 100
O=C(NCCCN1CCOCC1)c1cnccc1Cl,53,7.5
O=C(NCCCN1CCOCC1)c1cncc(Br)c1,65,23
O=C(NCCCN1CCOCC1)c1ccc(F)nc1,> 100,80
O=C(NCCN1CCOCC1)c1cccnc1Cl,1.8,2.6
Cc1ccc(C(=O)NCCN2CCOCC2)c(Cl)n1,> 100,28
O=C(NCCN1CCOCC1)c1cnc(O)c(Cl)c1,26,0.045
O=C(NCCCN1CCOCC1)c1cccnc1,> 100,> 100
O=C(NCCN1CCOCC1)c1cccnc1,> 100,68
O=C(NCCN1CCOCC1)c1cccnc1Br,0.32,8.5
O=C(NCCCN1CCOCC1)c1cccnc1Cl,6.5,9.4
O=C(NCCCN1CCOCC1)c1ccc(Cl)nc1,75,0.38
O=C(NCCN1CCOCC1)c1ccc(F)nc1,> 100,15
O=C(NCCN1CCOCC1)c1ccc(Cl)cc1 [MOCLOBEMIDE],> 100,–
